Assay results published in ChEMBL document CHEMBL4602730, “In Vitro and in Vivo Evaluation of Membrane-Active Flavone Amphiphiles: Semisynthetic Kaempferol-Derived Antimicrobials against Drug-Resistant Gram-Positive Bacteria” (J Med Chem, 2020).
≈ marks a conversion by molar mass, not a printed value. Calls of active or inactive are those of the source. The rule behind the calls is not given here.

How the values were obtained:
Staphylococcus aureus [1] = test: Antibacterial activity against Staphylococcus aureus ATCC 29213 assessed as inhibition of bacterial growth incubated for 24 hrs by broth microdilution method; assay type: functional; details: ATCC 29213, 24 h
Staphylococcus aureus [2] = test: Antibacterial activity against methicillin-resistant Staphylococcus aureus N315 assessed as inhibition of bacterial growth incubated for 24 hrs by broth microdilution method; assay type: functional; details: N315, 24 h
Staphylococcus aureus [3] = test: Antibacterial activity against methicillin-resistant Staphylococcus aureus NCTC 10442 assessed as inhibition of bacterial growth incubated for 24 hrs by broth microdilution method; assay type: functional; details: NCTC 10442, 24 h
[4] = Induction of hemolysis in rabbit RBC incubated for 1 hr; assay type: cell-based, Oryctolagus cuniculus, Erythrocyte; details: rabbit red blood cells (erythrocytes)
Escherichia coli = test: Antibacterial activity against Escherichia coli assessed as inhibition of bacterial growth incubated for 24 hrs by broth microdilution method; assay type: functional
Pseudomonas aeruginosa = test: Antibacterial activity against Pseudomonas aeruginosa assessed as inhibition of bacterial growth incubated for 24 hrs by broth microdilution method; assay type: functional
Staphylococcus aureus [5] = test: Antibacterial activity against Staphylococcus aureus ATCC 29213 assessed as induction of bacterial killing at 4 times MIC incubated for 1 hrs followed by re-plating of cultures and measured after 24 hrs by time kill study relative to control; assay type: functional
Staphylococcus aureus [6] = test: Antibacterial activity against Staphylococcus aureus ATCC 29213 assessed as induction of bacterial killing at 8 times MIC incubated for 0.5 hrs followed by re-plating of cultures and measured after 24 hrs by time kill study relative to control; assay type: functional
Staphylococcus aureus [7] = test: Antibacterial activity against Staphylococcus aureus ATCC 29213 assessed as bacterial cell killing at 4 times MIC incubated for 1 hrs followed by re-plating of cultures and measured after 24 hrs by time kill study relative to control; assay type: functional
Staphylococcus aureus [8] = test: Antibacterial activity against Staphylococcus aureus ATCC 29213 assessed as suppression of bacterial re-growth at 4 to 8 times MIC incubated for 0.5 to 24 hrs followed by re-plating of cultures and measured after 24 hrs by time kill study relative to control; assay type: functional, organism-based
Staphylococcus aureus [9] = test: Induction of cytoplasmic membrane permeabilization in Staphylococcus aureus ATCC 29213 at 1 to 8 times MIC by SYTOX green dye based fluorescence assay; assay type: functional, organism-based
Staphylococcus aureus [10] = test: Induction of cytoplasmic membrane permeabilization in methicillin-resistant Staphylococcus aureus NCTC 10442 at 1 to 8 times MIC by SYTOX green dye based fluorescence assay; assay type: functional, organism-based
Staphylococcus aureus [11] = test: Induction of cell surface disruption in Staphylococcus aureus ATCC 29213 at 8 times MIC incubated for 2 hrs by scanning electron microscopy; assay type: functional, organism-based
Staphylococcus aureus [12] = test: Induction of bacterial cell membrane integrity loss in Staphylococcus aureus ATCC 29213 incubated for 2 hrs propidium iodide and SYTO9 dye based LIVE/DEAD bacterial viability assay; assay type: functional, organism-based
Staphylococcus aureus [13] = test: Resistance index, ratio of MIC for antibacterial activity against Staphylococcus aureus ATCC 29213 passed over 19 cycles in presence of compound for period of 19 consecutive days by broth microdilution method to MIC for antibacterial activity against Staphylococcus aureus ATCC 29213; assay type: functional
[14] = Cytotoxicity in human MDA-MB-231 cells assessed as reduction in cell viability incubated for 24 hrs by CCK8 assay; assay type: cell-based
[15] = Cytotoxicity in human MDA-MB-231 cells assessed as cell viability at 32 times MIC incubated for 24 hrs by CCK8 assay relative to control; assay type: cell-based; details: read-out: Activity
[16] = Cytotoxicity in mouse corneal epithelial cells assessed as cell viability at 32 times MIC incubated for 24 hrs by CCK8 assay relative to control; assay type: cell-based; details: read-out: Activity
Staphylococcus aureus [17] = test: Antibacterial activity against Staphylococcus aureus ATCC 29213 infected in C57BL6 mouse assessed as reduction in bacterial count at 0.5% treated topically 4 times per day for 3 days starting from 1 day after infection relative to control; assay type: functional

SMILES | MIC (Staphylococcus aureus [1]) [µM] | MIC (Staphylococcus aureus [2]) [µM] | MIC (Staphylococcus aureus [3]) [µM] | HC50 at 1 h [4] [µM] | also measured
CCCCCNCCCOc1c(-c2ccc(OCC=C(C)C)cc2)oc2cc(OCC=C(C)C)cc(O)c2c1=O | 45.5 (≈ 25 µg/mL) | 11.4 (≈ 6.27 µg/mL) | 22.7 (≈ 12.5 µg/mL) | 69.7 | 
CCCOc1ccc(-c2oc3cc(OCCC)cc(O)c3c(=O)c2O)cc1 | > 135 | > 135 | > 135 | > 540 | 
CCCC[N+](C)(CCCC)CCCOc1c(-c2ccc(OCC=C(C)C)cc2)oc2cc(OCC=C(C)C)cc(O)c2c1=O | 17.1 | 17.1 | 34.1 | 46.9 | 
O=c1c(O)c(-c2ccc(O)cc2)oc2cc(O)cc(O)c12 [KAEMPFEROL] | > 175 | > 175 | > 175 |  | 
CC[N+](C)(CC)CCCOc1c(-c2ccc(OCC=C(C)C)cc2)oc2cc(OCC=C(C)C)cc(O)c2c1=O | 4.6 | 2.3 | 4.6 | 88.2 | 
CCCCCCCCNCCCOc1c(-c2ccc(OCC=C(C)C)cc2)oc2cc(OCC=C(C)C)cc(O)c2c1=O | > 84.5 | 21.1 (≈ 12.5 µg/mL) | > 84.5 | > 338 | 
CCCCCOc1ccc(-c2oc3cc(OCCCCC)cc(O)c3c(=O)c2O)cc1 | > 117 | > 117 | > 117 | > 469 | 
CCCCCCCOc1ccc(-c2oc3cc(OCCCCCCC)cc(O)c3c(=O)c2OCCCN(CC)CC)cc1 | > 83.9 | > 83.9 | > 83.9 | > 336 | 
CC(C)=CCOc1ccc(-c2oc3cc(OCC=C(C)C)cc(O)c3c(=O)c2O)cc1 | > 118 | > 118 | > 118 | > 473 | 
COC(=O)[C@H](CCCNC(=N)N)NC(=O)[C@H](CCCNC(=N)N)NC(=O)COc1c(-c2ccc(OCC=C(C)C)cc2)oc2cc(OCC=C(C)C)cc(O)c2c1=O | 3.9 (≈ 3.15 µg/mL) | 3.9 (≈ 3.15 µg/mL) | 3.9 (≈ 3.15 µg/mL) | 82.5 | 
CC(C)=CCOc1ccc(-c2oc3cc(OCC=C(C)C)cc(O)c3c(=O)c2OCC(=O)NCCCN(C)C)cc1 | 11.1 (≈ 6.27 µg/mL) | 11.1 (≈ 6.27 µg/mL) | 22.1 (≈ 12.5 µg/mL) | 287 | 
CCN(CC)CCCCCCOc1c(-c2ccc(OCC=C(C)C)cc2)oc2cc(OCC=C(C)C)cc(O)c2c1=O | 10.8 (≈ 6.24 µg/mL) | 10.8 (≈ 6.24 µg/mL) | 10.8 (≈ 6.24 µg/mL) | 83.8 | 
CCN(CC)CCOc1c(-c2ccc(OCC=C(C)C)cc2)oc2cc(OCC=C(C)C)cc(O)c2c1=O | 95.8 (≈ 50 µg/mL) | 95.8 (≈ 50 µg/mL) | 95.8 (≈ 50 µg/mL) | > 383 | 
CCCCCCCOc1ccc(-c2oc3cc(OCCCCCCC)cc(O)c3c(=O)c2O)cc1 | > 104 | > 104 | > 104 | > 414 | 
CCCN(CCC)CCCOc1c(-c2ccc(OCC=C(C)C)cc2)oc2cc(OCC=C(C)C)cc(O)c2c1=O | > 88.7 | > 88.7 | > 88.7 | > 355 | 
CC(C)=CCOc1ccc(-c2oc3cc(OCC=C(C)C)cc(O)c3c(=O)c2OCCCN2CCCC2)cc1 | 23.4 (≈ 12.5 µg/mL) | 11.7 (≈ 6.24 µg/mL) | 23.4 (≈ 12.5 µg/mL) | > 375 | 
CCN(CC)CCCCCOc1c(-c2ccc(OCC=C(C)C)cc2)oc2cc(OCC=C(C)C)cc(O)c2c1=O | 22.2 (≈ 12.5 µg/mL) | 22.2 (≈ 12.5 µg/mL) | 22.2 (≈ 12.5 µg/mL) | 99 | 
CC(C)=CCOc1ccc(-c2oc3cc(OCC=C(C)C)cc(O)c3c(=O)c2OCCC[N+](C)(C)C)cc1 | 4.8 | 2.4 | 4.8 | 77.3 | 
COC(=O)[C@H](CCCNC(=N)N)NC(=O)COc1c(-c2ccc(OCC=C(C)C)cc2)oc2cc(OCC=C(C)C)cc(OCC(=O)N[C@@H](CCCNC(=N)N)C(=O)OC)c2c1=O | 1.8 (≈ 1.58 µg/mL) | 1.8 (≈ 1.58 µg/mL) | 1.8 (≈ 1.58 µg/mL) | > 228 | MIC (Escherichia coli): 12.5 to 25 µg/mL (≈ 14.2 to 28.4 µM); MIC (Pseudomonas aeruginosa): 12.5 to 25 µg/mL (≈ 14.2 to 28.4 µM); LCK (Staphylococcus aureus [5]): 3.21; LCK (Staphylococcus aureus [6]): 3.22; Activity (Staphylococcus aureus [7]): >=99.9%; Activity (Staphylococcus aureus [8]): Active; Activity (Staphylococcus aureus [9]): Active; Activity (Staphylococcus aureus [10]): Active; Activity (Staphylococcus aureus [11]): Active; Activity (Staphylococcus aureus [12]): Active; Ratio (Staphylococcus aureus [13]): <=4; CC50 at 24 h [14]: > 50 µg/mL; viability at 24 h, 32 times MIC [15]: 75%; viability at 24 h, 32 times MIC [16]: 70.1%; Activity (Staphylococcus aureus [17]): 3.28 log10CFU
